Calls of active or inactive are those of the source. The rule behind the calls is not given here.
Assays:
[1] = molecular target: Phosphatidylinositol 4,5-bisphosphate 3-kinase catalytic subunit alpha isoform (Homo sapiens, UniProt P42336); experiment: Inhibition of PI3Kalpha (unknown origin) expressed in baculovirus expression system by kinase-glo luminescence assay
[2] = molecular target: Phosphatidylinositol 4,5-bisphosphate 3-kinase catalytic subunit beta isoform (Homo sapiens, UniProt P42338); experiment: Inhibition of PI3Kbeta (unknown origin) expressed in baculovirus expression system by kinase-glo luminescence assay
[3] = molecular target: Phosphatidylinositol 4,5-bisphosphate 3-kinase catalytic subunit gamma isoform (Homo sapiens, UniProt P48736); experiment: Inhibition of PI3Kgamma (unknown origin) expressed in baculovirus expression system by kinase-glo luminescence assay
[4] = molecular target: Phosphatidylinositol 4,5-bisphosphate 3-kinase catalytic subunit delta isoform (Homo sapiens, UniProt O00329, N836D); experiment: Inhibition of PI3Kdelta N836D mutant (unknown origin) expressed in Sf21 cells co-expressing p85 by kinase-glo luminescence assay
[5] = molecular target: T1, Phosphatidylinositol 4,5-bisphosphate 3-kinase catalytic subunit delta isoform (Homo sapiens, UniProt O00329); experiment: Inhibition of PI3Kdelta (unknown origin) expressed in baculovirus expression system by kinase-glo luminescence assay
T1 sequence (O00329 whole entry): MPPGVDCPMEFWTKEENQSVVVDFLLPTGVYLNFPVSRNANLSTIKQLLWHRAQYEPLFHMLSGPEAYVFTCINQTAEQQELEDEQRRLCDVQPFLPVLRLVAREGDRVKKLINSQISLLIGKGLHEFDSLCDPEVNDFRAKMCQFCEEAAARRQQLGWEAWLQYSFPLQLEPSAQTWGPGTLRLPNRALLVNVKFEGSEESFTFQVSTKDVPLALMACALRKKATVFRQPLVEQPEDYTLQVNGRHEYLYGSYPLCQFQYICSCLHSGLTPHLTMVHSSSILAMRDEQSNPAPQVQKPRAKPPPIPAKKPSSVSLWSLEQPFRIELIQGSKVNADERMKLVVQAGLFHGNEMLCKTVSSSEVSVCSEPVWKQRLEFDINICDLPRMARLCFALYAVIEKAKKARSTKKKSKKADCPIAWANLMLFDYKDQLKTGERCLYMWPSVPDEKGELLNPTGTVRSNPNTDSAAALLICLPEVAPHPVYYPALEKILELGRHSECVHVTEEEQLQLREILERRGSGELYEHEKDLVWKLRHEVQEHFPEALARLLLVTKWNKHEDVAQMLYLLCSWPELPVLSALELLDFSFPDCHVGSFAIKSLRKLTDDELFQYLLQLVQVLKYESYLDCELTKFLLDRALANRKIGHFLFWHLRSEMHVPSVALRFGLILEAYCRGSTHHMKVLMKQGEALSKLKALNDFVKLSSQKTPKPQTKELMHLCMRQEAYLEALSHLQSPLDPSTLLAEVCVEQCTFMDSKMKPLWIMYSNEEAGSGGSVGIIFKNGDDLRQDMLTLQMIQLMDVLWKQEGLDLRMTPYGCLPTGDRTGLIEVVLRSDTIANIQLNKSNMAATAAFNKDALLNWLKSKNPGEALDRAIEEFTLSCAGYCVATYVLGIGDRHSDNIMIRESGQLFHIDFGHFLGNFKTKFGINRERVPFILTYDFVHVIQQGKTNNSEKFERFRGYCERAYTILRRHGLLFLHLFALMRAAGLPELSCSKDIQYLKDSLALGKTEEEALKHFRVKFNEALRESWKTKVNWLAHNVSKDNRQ

[6] = species on record: Homo sapiens; experiment: Selectivity ratio of IC50 for PI3Kdelta N836D mutant (unknown origin) expressed in Sf21 cells to IC50 for wild type PI3Kdelta (unknown origin) expressed in baculovirus expression system
[7] = species on record: Homo sapiens; experiment: Selectivity ratio of IC50 for wild type PI3Kbeta (unknown origin) expressed in baculovirus expression system to IC50 for PI3Kbeta D862 mutant (unknown origin) expressed in baculovirus expression system
[8] = Inhibition of PI3Kbeta D862 mutant (unknown origin) expressed in baculovirus expression system by kinase-glo luminescence assay; design: species or system Homo sapiens
[9] = Inhibition of PI3Kalpha Q859D mutant (unknown origin) expressed in baculovirus expression system by kinase-glo luminescence assay; design: species or system Homo sapiens
[10] = molecular target: T2, Phosphatidylinositol 4,5-bisphosphate 3-kinase catalytic subunit delta isoform (Homo sapiens) (UniProt O00329); experiment: Inhibition of PI3Kdelta in human NAMALWA cells assessed as suppression of Akt S473 phosphorylation levels at […] after 2 hrs by Western blot analysis; type: cell-based
T2 sequence (whole entry): T1 sequence (O00329 whole entry)

Phosphatidylinositol 4,5-bisphosphate 3-kinase catalytic subunit delta isoform (Homo sapiens, UniProt O00329, N836D), sequence (O00329 whole entry N836D, canonical isoform): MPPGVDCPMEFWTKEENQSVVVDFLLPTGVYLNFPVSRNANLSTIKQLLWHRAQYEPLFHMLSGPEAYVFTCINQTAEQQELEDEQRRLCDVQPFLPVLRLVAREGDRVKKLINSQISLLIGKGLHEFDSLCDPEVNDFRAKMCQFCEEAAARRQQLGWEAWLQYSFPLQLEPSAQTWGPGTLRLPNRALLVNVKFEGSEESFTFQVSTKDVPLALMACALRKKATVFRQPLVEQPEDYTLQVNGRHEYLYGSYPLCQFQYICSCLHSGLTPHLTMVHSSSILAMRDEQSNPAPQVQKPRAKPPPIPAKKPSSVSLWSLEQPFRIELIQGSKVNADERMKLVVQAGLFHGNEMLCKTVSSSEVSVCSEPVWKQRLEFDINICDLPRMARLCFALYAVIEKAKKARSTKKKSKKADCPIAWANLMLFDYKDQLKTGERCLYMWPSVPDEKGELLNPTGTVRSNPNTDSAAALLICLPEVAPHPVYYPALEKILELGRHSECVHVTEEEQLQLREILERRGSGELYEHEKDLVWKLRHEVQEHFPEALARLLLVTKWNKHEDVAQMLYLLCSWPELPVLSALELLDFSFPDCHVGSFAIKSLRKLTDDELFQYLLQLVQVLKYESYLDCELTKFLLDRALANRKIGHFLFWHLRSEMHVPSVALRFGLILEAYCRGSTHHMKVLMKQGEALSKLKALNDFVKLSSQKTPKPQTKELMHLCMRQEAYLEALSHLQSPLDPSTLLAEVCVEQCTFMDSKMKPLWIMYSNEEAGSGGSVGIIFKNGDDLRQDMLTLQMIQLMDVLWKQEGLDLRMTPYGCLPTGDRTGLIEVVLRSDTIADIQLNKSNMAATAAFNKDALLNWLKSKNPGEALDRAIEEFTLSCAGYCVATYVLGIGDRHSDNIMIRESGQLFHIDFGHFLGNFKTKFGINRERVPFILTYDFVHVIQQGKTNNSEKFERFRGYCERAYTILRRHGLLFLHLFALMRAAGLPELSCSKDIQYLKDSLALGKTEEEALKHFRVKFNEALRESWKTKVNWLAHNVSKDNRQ
Phosphatidylinositol 4,5-bisphosphate 3-kinase catalytic subunit beta isoform, sequence (P42338 whole entry, canonical isoform): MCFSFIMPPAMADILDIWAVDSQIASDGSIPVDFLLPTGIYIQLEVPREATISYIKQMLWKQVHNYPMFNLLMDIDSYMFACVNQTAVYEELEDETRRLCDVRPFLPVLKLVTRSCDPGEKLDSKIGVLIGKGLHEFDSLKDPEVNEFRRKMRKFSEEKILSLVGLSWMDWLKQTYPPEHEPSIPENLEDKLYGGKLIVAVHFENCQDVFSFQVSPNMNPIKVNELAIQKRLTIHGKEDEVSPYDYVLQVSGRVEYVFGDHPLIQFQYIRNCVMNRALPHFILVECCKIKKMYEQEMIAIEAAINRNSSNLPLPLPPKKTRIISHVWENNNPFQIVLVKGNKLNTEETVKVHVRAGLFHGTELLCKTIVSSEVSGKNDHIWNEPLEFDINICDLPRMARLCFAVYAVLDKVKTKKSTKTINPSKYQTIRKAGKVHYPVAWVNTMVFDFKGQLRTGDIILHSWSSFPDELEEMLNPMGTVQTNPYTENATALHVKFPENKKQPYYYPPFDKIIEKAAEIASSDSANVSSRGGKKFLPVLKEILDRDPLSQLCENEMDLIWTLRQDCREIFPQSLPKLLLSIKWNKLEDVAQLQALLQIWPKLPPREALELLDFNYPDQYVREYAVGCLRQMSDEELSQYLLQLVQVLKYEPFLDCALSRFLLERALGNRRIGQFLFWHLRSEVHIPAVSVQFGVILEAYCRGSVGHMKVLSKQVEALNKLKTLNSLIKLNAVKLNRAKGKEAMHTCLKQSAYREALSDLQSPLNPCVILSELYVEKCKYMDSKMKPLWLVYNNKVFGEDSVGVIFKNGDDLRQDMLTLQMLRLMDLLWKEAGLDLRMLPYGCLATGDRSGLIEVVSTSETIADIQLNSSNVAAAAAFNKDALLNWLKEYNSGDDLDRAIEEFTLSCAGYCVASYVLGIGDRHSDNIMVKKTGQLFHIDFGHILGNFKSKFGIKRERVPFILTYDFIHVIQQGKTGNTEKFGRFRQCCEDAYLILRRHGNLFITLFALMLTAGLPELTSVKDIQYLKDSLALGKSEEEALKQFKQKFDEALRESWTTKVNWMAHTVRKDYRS
Phosphatidylinositol 4,5-bisphosphate 3-kinase catalytic subunit gamma isoform, sequence (P48736 whole entry, canonical isoform): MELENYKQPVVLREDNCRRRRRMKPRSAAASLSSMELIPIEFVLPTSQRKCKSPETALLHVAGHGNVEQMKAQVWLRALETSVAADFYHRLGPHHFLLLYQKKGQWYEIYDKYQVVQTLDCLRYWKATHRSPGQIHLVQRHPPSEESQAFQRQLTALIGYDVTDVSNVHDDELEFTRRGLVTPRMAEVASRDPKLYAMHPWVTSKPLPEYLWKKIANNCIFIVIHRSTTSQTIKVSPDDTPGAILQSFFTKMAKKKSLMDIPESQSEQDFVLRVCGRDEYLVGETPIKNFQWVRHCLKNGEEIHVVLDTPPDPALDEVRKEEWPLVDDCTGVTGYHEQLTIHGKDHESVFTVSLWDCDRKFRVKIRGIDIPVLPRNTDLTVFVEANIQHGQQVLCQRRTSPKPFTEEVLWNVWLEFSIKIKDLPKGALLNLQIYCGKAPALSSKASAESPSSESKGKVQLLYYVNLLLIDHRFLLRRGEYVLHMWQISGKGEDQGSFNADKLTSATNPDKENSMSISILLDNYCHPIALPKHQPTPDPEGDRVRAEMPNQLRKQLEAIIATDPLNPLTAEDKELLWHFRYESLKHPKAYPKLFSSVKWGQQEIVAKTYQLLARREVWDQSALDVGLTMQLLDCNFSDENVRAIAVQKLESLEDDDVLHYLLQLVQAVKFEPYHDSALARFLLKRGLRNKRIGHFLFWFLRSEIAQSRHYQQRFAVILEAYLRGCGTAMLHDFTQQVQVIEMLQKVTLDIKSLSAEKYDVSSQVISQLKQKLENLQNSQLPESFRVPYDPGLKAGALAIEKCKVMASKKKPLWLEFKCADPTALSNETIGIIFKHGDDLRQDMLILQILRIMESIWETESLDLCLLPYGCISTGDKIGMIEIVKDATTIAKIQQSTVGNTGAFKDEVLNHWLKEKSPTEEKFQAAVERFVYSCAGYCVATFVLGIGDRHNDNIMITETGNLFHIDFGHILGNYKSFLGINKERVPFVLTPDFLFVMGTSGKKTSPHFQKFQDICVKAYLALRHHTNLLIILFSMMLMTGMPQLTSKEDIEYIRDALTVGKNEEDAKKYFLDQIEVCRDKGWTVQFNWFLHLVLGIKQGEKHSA
Phosphatidylinositol 4,5-bisphosphate 3-kinase catalytic subunit alpha isoform, sequence (P42336 whole entry, canonical isoform): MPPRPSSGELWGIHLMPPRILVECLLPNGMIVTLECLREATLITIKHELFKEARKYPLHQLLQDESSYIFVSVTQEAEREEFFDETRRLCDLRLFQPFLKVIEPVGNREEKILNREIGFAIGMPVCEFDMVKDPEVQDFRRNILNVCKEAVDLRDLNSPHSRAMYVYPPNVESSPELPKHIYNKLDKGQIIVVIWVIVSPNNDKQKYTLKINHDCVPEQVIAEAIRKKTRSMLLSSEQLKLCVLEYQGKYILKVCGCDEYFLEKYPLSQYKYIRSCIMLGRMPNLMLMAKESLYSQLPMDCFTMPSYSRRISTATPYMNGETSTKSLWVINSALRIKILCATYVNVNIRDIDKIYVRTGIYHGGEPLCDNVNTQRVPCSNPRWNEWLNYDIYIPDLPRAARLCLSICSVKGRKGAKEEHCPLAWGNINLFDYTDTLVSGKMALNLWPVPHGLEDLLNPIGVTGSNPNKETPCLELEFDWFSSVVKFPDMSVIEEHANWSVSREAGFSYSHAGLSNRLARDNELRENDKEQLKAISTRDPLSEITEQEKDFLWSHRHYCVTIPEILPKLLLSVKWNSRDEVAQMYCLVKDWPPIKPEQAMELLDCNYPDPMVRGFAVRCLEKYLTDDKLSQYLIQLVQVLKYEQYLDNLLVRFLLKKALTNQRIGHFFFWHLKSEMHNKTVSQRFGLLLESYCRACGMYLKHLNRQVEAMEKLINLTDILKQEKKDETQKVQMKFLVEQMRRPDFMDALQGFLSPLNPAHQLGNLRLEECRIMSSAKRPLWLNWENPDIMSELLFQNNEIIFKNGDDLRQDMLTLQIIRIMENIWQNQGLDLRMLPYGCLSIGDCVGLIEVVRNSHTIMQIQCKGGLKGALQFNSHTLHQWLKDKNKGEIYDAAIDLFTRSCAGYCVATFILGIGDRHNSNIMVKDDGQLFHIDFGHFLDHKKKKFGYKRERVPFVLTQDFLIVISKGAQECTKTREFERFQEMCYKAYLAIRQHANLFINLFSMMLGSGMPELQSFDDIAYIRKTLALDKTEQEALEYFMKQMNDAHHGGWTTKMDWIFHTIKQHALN

IC50 [1] [nM]	IC50 [2] [nM]	IC50 [3] [nM]	IC50 [4] [nM]	IC50 [5] [nM]	inhibition [10]	Structure (SMILES)	Ratio IC50 [6]	Ratio IC50 [7]	IC50 [8] [nM]	IC50 [9] [nM]
2860	59	5530	24	69	–	O=C([C@@H]1CCCCN1)N1CCN(c2nc(N3CCOCC3)nc(-n3c(C(F)F)nc4ccccc43)n2)CC1	–	–	–	–
67	162	521	–	29	–	NC(=O)[C@H](CO)NC(=O)C1CCN(c2nc(N3CCOCC3)nc(-n3c(C(F)F)nc4ccccc43)n2)CC1	–	–	–	–
83	166	445	–	38	–	NC(=O)CNC(=O)[C@@H]1CCCN(c2nc(N3CCOCC3)nc(-n3c(C(F)F)nc4ccccc43)n2)C1	–	–	–	–
358	342	1980	–	57	–	NC(=O)[C@H](Cc1ccccc1)NC(=O)[C@H]1CCCN(c2nc(N3CCOCC3)nc(-n3c(C(F)F)nc4ccccc43)n2)C1	–	–	–	–
3900	3360	> 10000	–	143	–	N[C@H]1CC[C@@H](C(=O)N2CCN(c3nc(N4CCOCC4)nc(-n4c(C(F)F)nc5ccccc54)n3)CC2)CC1	–	–	–	–
2610	–	5860	9	–	Active	O=C([C@H]1CCCN1)N1CCN(c2nc(N3CCOCC3)nc(-n3c(C(F)F)nc4ccccc43)n2)CC1	–	–	–	–
123	207	434	–	40	–	C[C@H](NC(=O)C1CCN(c2nc(N3CCOCC3)nc(-n3c(C(F)F)nc4ccccc43)n2)CC1)C(N)=O	–	–	–	–
2050	146	5760	7	22	–	O=C(C[C@@H]1CCCN1)N1CCN(c2nc(N3CCOCC3)nc(-n3c(C(F)F)nc4ccccc43)n2)CC1	–	–	–	–
908	1720	1380	–	263	–	NC(=O)[C@H](Cc1ccccc1)NC(=O)[C@@H]1CCCN(c2nc(N3CCOCC3)nc(-n3c(C(F)F)nc4ccccc43)n2)C1	–	–	–	–
183	428	247	–	163	–	O=C(O)[C@@H]1CCCN(c2nc(N3CCOCC3)nc(-n3c(C(F)F)nc4ccccc43)n2)C1	–	–	–	–
–	–	–	–	–	Active	O=C([C@@H]1CCCN1)N1CCN(c2nc(N3CCOCC3)nc(-n3c(C(F)F)nc4ccccc43)n2)CC1	–	–	–	–
1770	60	6080	4	52	–	O=C(CN1CCN(c2nc(N3CCOCC3)nc(-n3c(C(F)F)nc4ccccc43)n2)CC1)[C@H]1CCCN1	–	–	–	–
2370	775	3590	36	50	–	O=C([C@H]1CCCCN1)N1CCN(c2nc(N3CCOCC3)nc(-n3c(C(F)F)nc4ccccc43)n2)CC1	–	–	–	–
40	215	231	–	42	–	O=C(O)[C@H]1CCCN(c2nc(N3CCOCC3)nc(-n3c(C(F)F)nc4ccccc43)n2)C1	–	–	–	–
190	513	708	–	44	–	NC(=O)[C@H](Cc1ccccc1)NC(=O)C1CCN(c2nc(N3CCOCC3)nc(-n3c(C(F)F)nc4ccccc43)n2)CC1	–	–	–	–
191	602	440	–	144	–	CC(C)[C@H](NC(=O)C1CCN(c2nc(N3CCOCC3)nc(-n3c(C(F)F)nc4ccccc43)n2)CC1)C(N)=O	–	–	–	–
183	217	64	–	38	–	O=C(O)C1CCN(c2nc(N3CCOCC3)nc(-n3c(C(F)F)nc4ccccc43)n2)CC1	–	–	–	–

Structure (SMILES)	IC50 [1] [nM]	IC50 [2] [nM]	IC50 [3] [nM]	IC50 [4] [nM]	IC50 [5] [nM]	inhibition [10]	Ratio IC50 [6]	Ratio IC50 [7]	IC50 [8] [nM]	IC50 [9] [nM]
NC(=O)CNC(=O)[C@H]1CCCN(c2nc(N3CCOCC3)nc(-n3c(C(F)F)nc4ccccc43)n2)C1	32	24	194	95	34	–	3	–	–	–
C[C@@H](NC(=O)C1CCN(c2nc(N3CCOCC3)nc(-n3c(C(F)F)nc4ccccc43)n2)CC1)C(N)=O	114	601	536	1900	44	Active	43	5	123	100
NC(=O)CNC(=O)C1CCN(c2nc(N3CCOCC3)nc(-n3c(C(F)F)nc4ccccc43)n2)CC1	98	329	496	171	66	–	2.6	–	–	–

Reference: ChEMBL document CHEMBL4431368, “Development of single and mixed isoform selectivity PI3Kδ inhibitors by targeting Asn836 of PI3Kδ” (Bioorg Med Chem Lett, 2016)
